Among the data in patent US20050197350A1, “Novel quinoline, tetrahydroquinazoline, and pyrimidine derivatives and methods of treatment related to the use thereof” (TAISHO PHARMACEUTICAL CO., LTD., priority 2003, published 2005) are class values, retold here.

This assay has as its system MCH receptors. Kind of assay: MCH receptor activity class (method not given).
Setting [1] is: activity class per percent of control at 10^-7 M or IC50.
The mark [2] stands for this setting: activity class 1-3: percent of control at 10^-7 M or IC50.
Setting [3] is: class 1-3 by percent of control at 10^-7 M or IC50.
Setting [4] is: class by percent of control at 10^-7 M or IC50.
Where [5] appears, read: class by percent of control at 10^−7 M or IC50.

Where two headings read alike, the source gives them in different places.

Consider `Cc1cc(CN[C@H]2CC[C@@H](Nc3cc(N(C)C)c4ccccc4n3)CC2)cc(C)c1O` [compound 1103], for which the class under setting [1] was 3 (Class 3 The value of percent of control at 10^−7 M was more than 60% or the value of IC50 was more than 200 nM.).
As to `CN(C)c1nc(N[C@H]2CC[C@@H](NC(=O)Nc3ccc(C#N)cc3)CC2)nc2c1CCCC2` [compound 1688], the class under setting [2] is given as 3 (Class 3 The value of percent of control at 10^−7 M was more than 60% or the value of IC50 was more than 200 nM.).
Regarding `Cc1cccc(C(=O)N[C@H]2CC[C@@H](Nc3ncc(C)c(N(C)C)n3)CC2)c1` [Example 2562, N-(cis-4-{[4-(dimethylamino)-5-methylpyrimidin-2-yl]amino}cyclohexyl)-3-methylbenzamide], the class came out at 1.
In the case of `C=CCOC(=O)NC[C@H]1CC[C@@H](Nc2nccc(N(C)C)n2)CC1` [compound 1650], the class under setting [2] is reported as 3 (Class 3 The value of percent of control at 10^−7 M was more than 60% or the value of IC50 was more than 200 nM.).
For the compound `CN(C)c1nc(N[C@H]2CC[C@@H](CNC(=O)Cc3c(Cl)ccc(Cl)c3Cl)CC2)nc2c1CCCC2` [compound 1062], the class under setting [1] is 2 (Class 2: The value of percent of control at 10^−7 M was from 40% to 60% or the value of IC′50 was from 50 nM to 200 nM.).
In the case of `CN(C)c1ccnc(N[C@H]2CC[C@@H](CNC(=O)c3cc(C(C)(C)C)nn3Cc3ccccc3)CC2)n1` [compound 430], the class under setting [3] is reported as 3 (Class 3 The value of percent of control at 10^−7 M was more than 60% or the value of IC50 was more than 200 nM.).
Take `COc1cc(CNC[C@H]2CC[C@@H](Nc3nccc(N(C)C)n3)CC2)cc(Br)c1OC` [compound 1310]: under setting [4], the class was 1 (Class 1: The value of percent of control at 10^−7 M was less than 40% or the value of IC50 was less than 50 nM.).
`Cc1cnc(N[C@H]2CC[C@@H](CNC(=O)c3cccnc3Oc3ccccc3F)C2)nc1N(C)C` [compound 3015]: the class under setting [5] is recorded as 1 (Class 1: The value of percent of control at 10^−7 M was less than 40% or the value of IC50 was less than 50 nM.).
Consider `CC(NC(=O)N[C@H]1CC[C@@H](Nc2nccc(N(C)C)n2)CC1)c1ccccc1` (relative stereo) [compound 2226], for which the class under setting [4] is given as 3 (Class 3 The value of percent of control at 10^−7 M was more than 60% or the value of IC50 was more than 200 nM.).
Same read-out and setting: to `COc1ccc2[nH]c(C)c(CC(=O)N[C@H]3CC[C@@H](Nc4cc(N(C)C)c5ccccc5n4)CC3)c2c1` [compound 682, N-(cis-4-{[4-(dimethylamino)quinolin-2-yl]amino}cyclohexyl)-2-(5-methoxy-2-methyl-1H-indol-3-yl)acetamide] belongs 2 (Class 2: The value of percent of control at 10^−7 M was from 40% to 60% or the value of IC′50 was from 50 nM to 200 nM.); to `CN(C)c1cc(N[C@H]2CC[C@@H](NC(=O)C(Cc3ccccc3)c3ccccc3)CC2)nc2ccccc12` (relative stereo) [compound 678], 3 (Class 3 The value of percent of control at 10^−7 M was more than 60% or the value of IC50 was more than 200 nM.).
For `CN(C)c1nc(N[C@H]2CC[C@@H](NC(=O)c3csc(-c4cccs4)n3)CC2)nc2c1CCCC2` [compound 581], the class under setting [3] is reported as 2 (Class 2: The value of percent of control at 10^−7 M was from 40% to 60% or the value of IC′50 was from 50 nM to 200 nM.).
Turning to `CN(C)c1nc(N[C@H]2CC[C@@H](NC(=O)c3cc(-c4ccc(Cl)cc4)oc3C(F)(F)F)CC2)nc2c1CCCC2` [compound 576], under setting [3], the class was 3 (Class 3 The value of percent of control at 10^−7 M was more than 60% or the value of IC50 was more than 200 nM.).
For `CN(C)c1ccnc(N[C@H]2CC[C@@H](CNC(=O)c3ccc(Br)cc3)CC2)n1` [compound 367], under setting [4], the class is given as 3 (Class 3 The value of percent of control at 10^−7 M was more than 60% or the value of IC50 was more than 200 nM.).
As to `CN(C)c1nc(N[C@H]2CC[C@@H](NC(=O)C(CC(=O)c3ccc(C(C)(C)C)cc3)c3cn(C)c4ccccc34)CC2)nc2c1CCCC2` (relative stereo) [compound 997], the class under setting [1] is on record as 3 (Class 3 The value of percent of control at 10^−7 M was more than 60% or the value of IC50 was more than 200 nM.).
For the compound `CN(C)c1ccnc(N[C@H]2CC[C@@H](NC(=O)NCc3ccccc3F)CC2)n1` [compound 2233], the class under setting [4] is given as 3 (Class 3 The value of percent of control at 10^−7 M was more than 60% or the value of IC50 was more than 200 nM.).
For `CCOc1ccc(C(=O)N[C@H]2CC[C@@H](Nc3nc(C)c(C)c(N(C)C)n3)CC2)cc1` [compound 2851], the class under setting [5] was 3 (Class 3 The value of percent of control at 10^−7 M was more than 60% or the value of IC50 was more than 200 nM.).
Regarding `CN(C)c1ccnc(N[C@H]2CC[C@@H](NC(=O)c3ccc(Br)s3)CC2)n1` [compound 812], under setting [4], the class is 3 (Class 3 The value of percent of control at 10^−7 M was more than 60% or the value of IC50 was more than 200 nM.).
Take `Cc1cc(=O)oc2c(OCC(=O)N[C@H]3CC[C@@H](Nc4nc5c(c(N(C)C)n4)CCCC5)CC3)cccc12` [compound 580]: under setting [3], the class is reported as 3 (Class 3 The value of percent of control at 10^−7 M was more than 60% or the value of IC50 was more than 200 nM.).
`CN(C)c1ccnc(N[C@H]2CC[C@@H](NC(=O)c3ccccc3COc3ccccc3)CC2)n1` [compound 899]: under setting [4], the class is on record as 3 (Class 3 The value of percent of control at 10^−7 M was more than 60% or the value of IC50 was more than 200 nM.).
Regarding `Cc1sc(-c2ccccc2)nc1CC(=O)N[C@H]1CC[C@@H](Nc2nc3c(c(N(C)C)n2)CCCC3)CC1` [compound 987], under setting [1], the class is reported as 3 (Class 3 The value of percent of control at 10^−7 M was more than 60% or the value of IC50 was more than 200 nM.).
For the compound `CCOc1ccccc1C(=O)N[C@H]1CC[C@@H](Nc2cc(N(C)C)c3ccccc3n2)CC1` [compound 72], the class (MCH receptor, class by percent of control at 10^-7 M or IC50) is 3 (Class 3 The value of percent of control at 10^−7 M was more than 60% or the value of IC50 was more than 200 nM.).
Take `CSc1ncccc1C(=O)NC[C@H]1CC[C@@H](Nc2nccc(N(C)C)n2)CC1` [compound 387]: under setting [4], the class is 3 (Class 3 The value of percent of control at 10^−7 M was more than 60% or the value of IC50 was more than 200 nM.).
On the same count and under the same terms, to `CN(C)c1ccnc(N[C@H]2CC[C@@H](CNCc3cccc(Br)c3)CC2)n1` [compound 1264] belongs 3 (Class 3 The value of percent of control at 10^−7 M was more than 60% or the value of IC50 was more than 200 nM.).
Turning to `CN(C)c1nc(N[C@H]2CC[C@@H](CNC(=O)c3ccc(Cl)c([N+](=O)[O-])c3)CC2)nc2c1CCCC2` [compound 589], under setting [3], the class was 3 (Class 3 The value of percent of control at 10^−7 M was more than 60% or the value of IC50 was more than 200 nM.).
For `CN(C)c1ccnc(N[C@H]2CC[C@@H](CNCc3c[nH]c4ccc(Br)cc34)CC2)n1` [compound 1251], the class under setting [4] is 1 (Class 1: The value of percent of control at 10^−7 M was less than 40% or the value of IC50 was less than 50 nM.).
Consider `Cc1nc(N[C@H]2CC[C@@H](NC(=O)c3ccc(F)c(F)c3)CC2)nc(N(C)C)c1C` [compound 2864], for which the class under setting [5] is reported as 1 (Class 1: The value of percent of control at 10^−7 M was less than 40% or the value of IC50 was less than 50 nM.).
As to `CC(C(=O)N[C@H]1CC[C@@H](Nc2nc3c(c(N(C)C)n2)CCCC3)CC1)c1ccc(C(=O)c2cccs2)cc1` (relative stereo) [compound 1020], the class under setting [1] is on record as 2 (Class 2: The value of percent of control at 10^−7 M was from 40% to 60% or the value of IC′50 was from 50 nM to 200 nM.).
On the same count and under the same terms, the result for `CN(C)c1nc(N[C@H]2CC[C@@H](NC(=O)CCCc3cccs3)CC2)nc2c1CCCC2` [compound 1022] reads 3 (Class 3 The value of percent of control at 10^−7 M was more than 60% or the value of IC50 was more than 200 nM.).
Turning to `Cc1ccc(CNC[C@H]2CC[C@@H](Nc3nc4c(c(N(C)C)n3)CCCC4)CC2)cc1I` [compound 1508], under setting [4], the class is reported as 3 (Class 3 The value of percent of control at 10^−7 M was more than 60% or the value of IC50 was more than 200 nM.).
Same read-out and setting: to `CN(C)c1nc(N[C@H]2CC[C@@H](CNC(=O)c3ccc(C#N)cc3)CC2)nc2c1CCCC2` [compound 639] belongs 3 (Class 3 The value of percent of control at 10^−7 M was more than 60% or the value of IC50 was more than 200 nM.).
`CN(C)c1nc(N[C@H]2CC[C@@H](NC(=O)c3cc4ccccc4s3)CC2)nc2c1CCCC2` [compound 530]: under setting [3], the class is listed as 3 (Class 3 The value of percent of control at 10^−7 M was more than 60% or the value of IC50 was more than 200 nM.).
On to `CN(C)c1ccnc(N[C@H]2CC[C@@H](NC(=O)Cc3ccc(Cl)c(Cl)c3)CC2)n1` [compound 838], for which, under setting [4], the class is recorded as 3 (Class 3 The value of percent of control at 10^−7 M was more than 60% or the value of IC50 was more than 200 nM.).
Still for that read-out and setting: to `CN(C)c1ccnc(N[C@H]2CC[C@@H](NC(=O)c3cccnc3Sc3ccccc3)CC2)n1` [compound 354] belongs 3 (Class 3 The value of percent of control at 10^−7 M was more than 60% or the value of IC50 was more than 200 nM.).
The same measure, in the same setting: the result for `COc1c(Br)cc(Br)cc1CNC[C@H]1CC[C@@H](Nc2cc(N(C)C)c3ccccc3n2)CC1` [compound 1171] reads 2 (Class 2: The value of percent of control at 10^−7 M was from 40% to 60% or the value of IC′50 was from 50 nM to 200 nM.).
On the same count and under the same terms, the result for `COc1cc(CC(=O)N[C@H]2CC[C@@H](Nc3nccc(N(C)C)n3)CC2)cc(OC)c1` [compound 841] reads 3 (Class 3 The value of percent of control at 10^−7 M was more than 60% or the value of IC50 was more than 200 nM.); that for `CN(C)c1ccnc(N[C@H]2CC[C@@H](NCc3c[nH]nc3-c3ccc(C(F)(F)F)cc3)CC2)n1` [compound 1218], 3 (Class 3 The value of percent of control at 10^−7 M was more than 60% or the value of IC50 was more than 200 nM.); that for `Cc1cccc(C(=O)N[C@H]2CC[C@@H](Nc3nccc(N(C)C)n3)CC2)c1N` [compound 922], 3 (Class 3 The value of percent of control at 10^−7 M was more than 60% or the value of IC50 was more than 200 nM.).
